From ChEMBL document CHEMBL1201862, “PubChem BioAssay data set” (2004) come the findings set out here.

Each structure is given as a SMILES string.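 Cultured in 96-well plates, cells were exposed to test compound for 48 hours across five concentrations. Here, GI50 denotes the concentration required for 50% inhibition of growth.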 Calls of active or inactive are those of the source. No stated cut-off is given here; in the data, active = GI50 up to about 1.1 µM and inactive = higher.

Among the test systems are CAKI-1; DLD-1; EKVX; HCC 2998; HL-60; HOP-62; HOP-92; IGROV-1; M14; NCI-H226; NCI-H460; OVCAR-4; RXF 393; SF-268; SK-MEL-2; SK-OV-3; SN12C; SW-620; T47D; UACC-62.
Test in all cases: NCI-60 cell line screen, 48 h

As for `CC[C@@]1(OC(=O)C(N)CCCCN)C(=O)OCc2c1cc1n(c2=O)Cc2cc3ccccc3nc2-1` (stereo partly drawn), the GI50 is < 15.2 nM (active) with CAKI-1; 494 nM (active) in the experiment on DLD-1; 753 nM (active) in the experiment with EKVX; 410 nM (active) in the experiment with HCC 2998; < 13.2 nM (active) in the experiment on HL-60; < 14.8 nM (active) in the experiment with HOP-62. In addition, the GI50 in the experiment on HOP-92 was 179 nM (active); with IGROV-1 it was 212 nM (active); in the experiment on M14 it was 20.4 nM (active); in the experiment on NCI-H226, 111 nM (active); with NCI-H460, < 10 nM (active); with OVCAR-4 it was 332 nM (active). The GI50 in the experiment on RXF 393 was 122 nM (active); in the experiment on SF-268, 16.9 nM (active); in the experiment with SK-MEL-2, 500 nM (active); in the experiment with SK-OV-3, 105 nM (active); in the experiment with SN12C it was < 14.9 nM (active); in the experiment on SW-620 it was 40 nM (active). In addition, the figures for the GI50 in the experiment with T47D and in the experiment on UACC-62 were 32.6 nM (active) and < 12.8 nM (active), respectively.
As to `CN(C)CCNC(=O)c1cccc2cc3ccc4ccccc4c3nc12`, the GI50 was 41.3 nM (active) in the experiment on CAKI-1; 56.1 nM (active) with DLD-1; 145 nM (active) in the experiment with EKVX; 104 nM (active) in the experiment with HCC 2998; 33.6 nM (active) in the experiment with HL-60; 95.7 nM (active) in the experiment with HOP-62. The GI50 is 143 nM (active) with HOP-92; 105 nM (active) with IGROV-1; 200 nM (active) with M14; 112 nM (active) in the experiment with NCI-H226; 14.9 nM (active) in the experiment on NCI-H460; 115 nM (active) with OVCAR-4. The GI50 with RXF 393 was 111 nM (active); in the experiment with SF-268, 95.3 nM (active); with SK-MEL-2 it was 203 nM (active); with SK-OV-3, 121 nM (active); with SN12C, 53.1 nM (active); in the experiment with SW-620, 30.6 nM (active). Also, in the experiment on UACC-62, the GI50 was 77.6 nM (active).
As for `Nc1ccn([C@@H]2C=C(CO)[C@@H](O)[C@H]2O)c(=O)n1`, the GI50 in the experiment with CAKI-1 is 101 nM (active); in the experiment with DLD-1, 151 nM (active); in the experiment with EKVX, 562 nM (active); with HCC 2998 it was 1290 nM (inactive); with HL-60 it was 50 nM (active); in the experiment with HOP-62, 102 nM (active). Further, the GI50 in the experiment on HOP-92 is 224 nM (active); in the experiment with IGROV-1 it was 108 nM (active); in the experiment with M14, 186 nM (active); with NCI-H226, 5530 nM (inactive); in the experiment on NCI-H460 it was 59.3 nM (active); in the experiment on OVCAR-4, 216 nM (active). In addition, the GI50 in the experiment with RXF 393 is 530 nM (active); in the experiment on SF-268, 269 nM (active); in the experiment on SK-MEL-2 it was 10000 nM (inactive); with SK-OV-3, 248 nM (active); in the experiment on SN12C, 54.6 nM (active); with SW-620, 84.9 nM (active). Further, the GI50 with T47D is 483 nM (active); in the experiment on UACC-62, 227 nM (active).
Take `COc1ccc2c(c1)c(=O)c1c(NCCN(C)C)ccc3nnn2c31`: the GI50 in the experiment with CAKI-1 was 3010 nM (inactive); in the experiment on DLD-1, 1710 nM (inactive); with EKVX, 2050 nM (inactive); in the experiment on HCC 2998, 2760 nM (inactive); in the experiment on HL-60 it was 1820 nM (inactive); with HOP-62, 2820 nM (inactive). Further, the GI50 in the experiment with HOP-92 was 2190 nM (inactive); in the experiment on IGROV-1, 3330 nM (inactive); in the experiment with M14 it was 3990 nM (inactive); in the experiment on NCI-H226, 2460 nM (inactive); with NCI-H460, 1610 nM (inactive); in the experiment with OVCAR-4, 1970 nM (inactive). For the same compound, the GI50 in the experiment on RXF 393 was 27.2 nM (active); in the experiment with SF-268, 2130 nM (inactive); in the experiment with SK-MEL-2, 6310 nM (inactive); in the experiment with SK-OV-3, 4010 nM (inactive); in the experiment on SN12C, 2490 nM (inactive); in the experiment on SW-620, 700 nM (active). Moreover, the GI50 in the experiment on UACC-62 was 4710 nM (inactive).
